Measurements from patent US11236083B2, “Compounds and pharmaceutical compositions for modulating SGK activity, and methods thereof” (NEW ERA PHARMA, INC., priority 2016, dated 2022).
Like-named read-outs stand apart in the source and are kept apart here.

Tests used:
Sgk1 = molecular target: T1, Sgk1 (Homo sapiens, UniProt O00141); assay: Enzyme based assay for SGK1 (biotinylated Akt Substrates-2 peptide, Eu3+ Cryptate/XL665 detection); type: biochemical
T1 sequence (O00141 1-431): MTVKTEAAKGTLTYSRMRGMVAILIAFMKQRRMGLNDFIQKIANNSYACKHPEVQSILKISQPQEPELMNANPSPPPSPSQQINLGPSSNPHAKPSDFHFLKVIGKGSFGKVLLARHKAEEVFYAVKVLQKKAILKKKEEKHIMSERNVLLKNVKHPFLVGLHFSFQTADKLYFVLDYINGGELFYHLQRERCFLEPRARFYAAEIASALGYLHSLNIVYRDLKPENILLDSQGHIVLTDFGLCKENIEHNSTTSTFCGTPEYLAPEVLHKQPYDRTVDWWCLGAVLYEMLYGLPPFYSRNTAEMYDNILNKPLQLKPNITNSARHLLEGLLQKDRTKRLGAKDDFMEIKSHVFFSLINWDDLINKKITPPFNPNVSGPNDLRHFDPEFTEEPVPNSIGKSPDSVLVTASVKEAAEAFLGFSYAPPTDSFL
Description: (§1) 1. Enzyme Based Assays for SGK1, SGK2, SGK3, and Akt1
(§2) The kinase enzymatic reaction is carried out with a biotinylated Akt Substrates-2 peptide substrate. The phosphorylated substrate is then detected using a specific anti-phospho peptide antibody which is coupled with Eu^3+ Cryptate and XL665 conjugated with streptavidin.
(§3) Exemplary Assay Conditions
(§4) • Enzyme: ˜0.1 nM • Substrate: 0.2 μM • ATP: 50 μM and 1 mM • Mg^2+: 10 mM • Reaction time: 60 min with 50 μM ATP and 30 min with 1 mM ATP • SA-XL to Biotin: 1:10
(§5) Detailed Steps • 1. prepare the enzyme and substrate solution with the buffer from Cisbio • 2. add the enzyme and substrate solution to the diluted compound plate • 3. transfer 5 μL of compound, enzyme, and substrate mixture to an 384-well assay plate • 4. add 5 μL ATP (with Mg^2+) solution to initiate the reaction • 5. after certain time, add 10 μL of stop solution containing SA-XL and specific antibody • 6. read the plate after 2 h incubation at rt • 7. process the data using prizm software (Exemplary results are shown in FIG. 1.) 2. PK Studies Protocol

Sgk2 = molecular target: T2, Sgk2 (Homo sapiens, UniProt Q9HBY8); assay: Enzyme based assay for SGK2 (biotinylated Akt Substrates-2 peptide, Eu3+ Cryptate/XL665 detection); type: biochemical
T2 sequence (Q9HBY8 1-367): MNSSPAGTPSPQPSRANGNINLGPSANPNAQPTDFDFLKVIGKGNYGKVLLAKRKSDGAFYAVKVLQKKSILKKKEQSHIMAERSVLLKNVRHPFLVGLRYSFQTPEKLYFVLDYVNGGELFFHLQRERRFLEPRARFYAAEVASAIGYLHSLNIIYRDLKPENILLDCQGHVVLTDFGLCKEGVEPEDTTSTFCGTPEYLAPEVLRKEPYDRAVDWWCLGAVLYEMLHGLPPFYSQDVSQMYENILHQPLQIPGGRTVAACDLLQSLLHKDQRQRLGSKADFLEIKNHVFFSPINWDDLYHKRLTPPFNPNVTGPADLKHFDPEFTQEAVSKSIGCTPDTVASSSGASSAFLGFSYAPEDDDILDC
Description: as §1, §2, §3, §4, §5

[1] = PK study in male ICR mice, intravenous and oral administration, plasma concentration; type: in vivo; conditions: for MRT inf: read-out: MRT(0-∞)
Source text: 3 Male mice/group, 8 groups total with Intravenous and Oral Administration, then measure the compound concentration in plasma.
Selected Pharmacokinetics Parameters of Compound N in Male ICR Mice Following Intravenous and Oral Administration

[2] = 50 μM ATP, read-out: Sgk1 (50 μM ATP)
[3] = 1 mM ATP, read-out: Sgk1 (1 mM ATP)
[4] = 50 μM ATP, read-out: Sgk2 (50 μM ATP)
[5] = 1 mM ATP, read-out: Sgk2 (1 mM ATP)

SMILES	IC50 (Sgk1; [2]) [nM]	IC50 (Sgk1; [3]) [nM]	IC50 (Sgk2; [4]) [nM]	IC50 (Sgk2; [5]) [nM]	also measured
COc1ccc(F)c(S(=O)(=O)Nc2ccc(-c3cc(OC)c4c(N)n[nH]c4c3)nc2)c1	13	11.1	5	6.5	
COc1ccc(F)c(S(=O)(=O)Nc2cnc(-c3cc(OC)c4c(N)n[nH]c4c3)nc2)c1	17.9	27.3	5.4	4	
COc1ccc(F)c(S(=O)(=O)Nc2ccc(-c3ccc4c(N)n[nH]c4c3)nc2)c1 [Compound N, N-(6-(3-amino-1H-indazol-6-yl)pyridin-3-yl)-2-fluoro-5-methoxybenzenesulfonamide]					CLz ([1]; IV (2 mg/kg)): 0.17 mL/min/kg; t1/2z ([1]; IV (2 mg/kg)): 6.99 h; t1/2z ([1]; PO (20 mg/kg)): 17.27 h; F ([1]; PO (20 mg/kg), F is calculated from AUC(0-t)): 63.37%; AUC(0-inf) ([1]; mouse, plasma, IV (2 mg/kg)): 165 µg·h/mL; AUC(0-t) ([1]; mouse, plasma, IV (2 mg/kg)): 151 µg·h/mL; Cmax ([1]; mouse, plasma, IV (2 mg/kg)): 29.1 µg/mL; Tmax ([1]; mouse, plasma, IV (2 mg/kg)): 0.08 h; MRT inf ([1]; mouse, plasma, IV (2 mg/kg)): 8.84 h; Vd ([1]; mouse, plasma, IV (2 mg/kg), read-out: Vz): 0.12 L/kg; AUC(0-inf) ([1]; mouse, plasma, PO (20 mg/kg)): 1530 µg·h/mL; AUC(0-t) ([1]; mouse, plasma, PO (20 mg/kg)): 957 µg·h/mL; Cmax ([1]; mouse, plasma, PO (20 mg/kg)): 71.9 µg/mL; Tmax ([1]; mouse, plasma, PO (20 mg/kg)): 0.25 h; MRT inf ([1]; mouse, plasma, PO (20 mg/kg)): 24.1 h
COc1ccc(F)c(S(=O)(=O)Nc2ccc(-c3cc(OC4CCOC4)c4c(N)n[nH]c4n3)cc2)c1 (stereo not shown)	24.7	8.9	7.6	7.6	
COc1ccc(F)c(S(=O)(=O)Nc2ccc(-c3cc(OC(C)C)c4c(N)n[nH]c4c3)cc2)c1	42.3	58.8	64	192	
COc1ccc(Cl)c(S(=O)(=O)Nc2ccc(-c3cc(OCC4CNCCO4)c4cn[nH]c4c3)cc2)c1 (stereo not shown)	1.8	31.9	1.8	25.2	
COc1ccc(F)c(S(=O)(=O)Nc2ccc(-c3cnc4c(N)n[nH]c4c3)nc2)c1	141	208	27.8	134	
COc1ccc(F)c(S(=O)(=O)Nc2ccc(-c3cc(C)c4c(N)n[nH]c4c3)nc2)c1	10.1	9.2	5	7.9	
COc1ccc(F)c(S(=O)(=O)Nc2ccc(-c3cc(OC)c4c(N)n[nH]c4n3)cc2)c1	17.1	112	3	35.7	
COc1ccc(F)c(S(=O)(=O)Nc2ccc(-c3cc4[nH]ncc4c(NCC4CNCCO4)n3)cc2)c1 (stereo not shown)	8.1	4.2	5.3	3.5	
COc1ccc(F)c(S(=O)(=O)Nc2ccc(-c3cc4[nH]ncc4cn3)cc2)c1	160	> 200	9.7	> 200	
COc1ccc(F)c(S(=O)(=O)Nc2ccc(-c3cc(O[C@H]4CCOC4)c4c(N)n[nH]c4c3)nc2)c1	109	181	14.6	17.8	
COc1ccc(F)c(S(=O)(=O)Nc2ccc(-c3cc(O[C@H]4CCOC4)c4c(N)n[nH]c4c3)cc2)c1	5.2	2.9	10.3	16.4	
Cc1n[nH]c2nc(-c3ccc(NS(=O)(=O)c4cc(Cl)ccc4F)cc3)ccc12	12.1		5.9		
COc1ccc(F)c(S(=O)(=O)Nc2ccc(-c3cc(OCC4CNCCO4)c4c(N)n[nH]c4c3)cc2)c1 (stereo not shown)	2.3	3.9	2	3.8	
COc1ccc(F)c(S(=O)(=O)Nc2ccc(-c3cc(OC)c4c(N)n[nH]c4c3)cn2)c1	29.7	133	7.2	29.7	
CCOc1cc(-c2ccc(NS(=O)(=O)c3cc(OC)ccc3F)cc2)nc2[nH]nc(N)c12	16.2	8.2	7.8	10.1	
COc1ccc(F)c(S(=O)(=O)Nc2ccc(-c3cc4[nH]ncc4c(OC)n3)cc2)c1	70.6		38.5	32.7	
COc1ccc(F)c(S(=O)(=O)Nc2ccc(-c3cc4c5c(n[nH]c5c3)NC(=O)C(C)(C)O4)cc2)c1	77.6	344	35	323	

SMILES	IC50 (Sgk1; [2]) [nM]	IC50 (Sgk1; [3]) [nM]	IC50 (Sgk2; [4]) [nM]	IC50 (Sgk2; [5]) [nM]	also measured
COc1ccc(Cl)c(NS(=O)(=O)c2ccc(-c3ccc4c(N)n[nH]c4n3)cc2)c1	> 2000		109		
COc1ccc(F)c(S(=O)(=O)Nc2ccc(-c3cc(OCCN(C)C)c4c(N)n[nH]c4n3)cc2)c1	45	187	4.2	40	
COc1ccc(F)c(S(=O)(=O)Nc2ccc(-c3cc(OC4COC4)c4c(N)n[nH]c4c3)cc2)c1	8.6	3.8	4.4	6.5	
CNCCOc1cc(-c2ccc(NS(=O)(=O)c3cc(OC)ccc3F)cc2)cc2[nH]nc(N)c12	17.7	11.3	6	38.8	
COc1ccc(F)c(S(=O)(=O)Nc2ccc(-c3cc(C)c4c(N)n[nH]c4c3)cc2)c1	21.5	49.9	8.4	71.5	
COCCOc1cc(-c2ccc(NS(=O)(=O)c3cc(OC)ccc3F)cn2)cc2[nH]nc(N)c12	40	15.3	4.5	33.2	
Nc1n[nH]c2cc(-c3ccc(NS(=O)(=O)c4cccc(Cl)c4Cl)cn3)ccc12	150	542	17.1	13.4	
COc1ccc(F)c(S(=O)(=O)Nc2ccc(-c3cc(O[C@@H]4CCOC4)c4c(N)n[nH]c4c3)nc2)c1	8.5	10.3	4	36	
COc1ccc(F)c(S(=O)(=O)Nc2ccc(-c3cc4c5c(n[nH]c5c3)NC(=O)CN4)cc2)c1	4.8	12.6	3.4	18.6	
COc1ccc(F)c(S(=O)(=O)Nc2ccc(-c3ccc4c(N)n[nH]c4c3)nc2)c1 [drawing 151]	25	158	4.6	20.8	
COc1ccc(F)c(S(=O)(=O)Nc2ccc(-c3cc(O[C@@H]4CCOC4)c4c(N)n[nH]c4c3)cc2)c1	5.5	1.5	4.6	9.3	
COc1ccc(F)c(S(=O)(=O)Nc2ccc(-c3ccc4cn[nH]c4c3)nc2)c1	92.5	144	31.4	267	
COc1ccc(F)c(S(=O)(=O)Nc2ccc(-c3cc4c5c(n[nH]c5c3)NC(=O)CO4)cc2)c1	30.6	970	24.3	222	
COc1ccc(F)c(S(=O)(=O)Nc2ccc(-c3cc(OCC(C)(C)O)c4c(N)n[nH]c4c3)cc2)c1	36.1		38.3	39.3	
COCCOc1cc(-c2ccc(NS(=O)(=O)c3cc(OC)ccc3F)cc2)nc2[nH]nc(N)c12	28.7	10.4	9.6	69.4	
COc1ccc(F)c(S(=O)(=O)Nc2ccc(-c3cc(OCCN(C)C)c4c(N)n[nH]c4c3)cc2)c1	27	20	9.1	104	
COc1ccc(F)c(S(=O)(=O)Nc2ccc(-c3cc(OCC4CNCCO4)c4cn[nH]c4n3)cc2)c1 (stereo not shown)	3.4	10.7	3.5	9.8	
COc1ccc(F)c(S(=O)(=O)Nc2cnc(-c3ccc4c(N)n[nH]c4c3)nc2)c1	14.1	62.2	3.7	7.5	
CCOc1cc(-c2ccc(NS(=O)(=O)c3cc(OC)ccc3F)cn2)cc2[nH]nc(N)c12	14.1	110	75	19.8	
